Entries after “also recorded” stand apart in the source; their conditions may differ.

This note sets out measurements from US20080089860A1, “Therapeutic compositions and methods useful in treating cancer” (priority 2006, published 2008).

The test system of one data set is Renca tumors. Nature of the data set: Renca tumors in Balb/c mice. The class given is in vivo. As to conditions: end of treatment.
The next data set relates to C42 cells. Nature of the data set: C42 prostate cancer cell growth. The class given is cell-based, human. As for the experimental part:
(§1) For cell proliferation assays, cells were grown in 10% FCS culture medium containing various amounts of IFNs and/or sodium stibogluconate in 96 well plates and cultured at 37° C. for 3 or 6 days as indicated. The numbers of viable cells in proliferation assays were determined by MTT assays as described in Phatak et al., J. Immunol. 167, 3391 (2001).

Another data set deals with WiT49-N1 cells. Nature of the data set: WiT49-N1 Wilms tumor cell growth, MTT assay. The conditions noted are these: day 6 culture; killing at 100 μg/ml. It counts as cell-based, human. As for the experimental part:
as §1

The test system of a further data set is DR cells. Nature of the data set: DR lymphoma cell growth, MTT assay. The conditions noted are these: day 6; single agent at 50 μg/ml and 100 μg/ml. The class given is cell-based, human. The protocol:
as §1
Background: Formazan colour is commonly taken as a measure of viable cells.

A further data set deals with DU145 cells. Nature of the data set: DU145 prostate cancer cell growth, MTT assay. It counts as cell-based, human. As to conditions: single agent, 50 μg/ml and 100 μg/ml. As for the experimental part:
as §1
NIH3T3 (Yi, et al., Blood 85, 87 (1995)), WM9 (Forsberg, et al., Proc. Nat. Acad. Sci. USA 90, 393 (1993)), DU145 (Mickey, et al., Cancer Res. 37, 4049 (1977)), LoVo (Drewinko, et al., Cancer Res. 36, 467 (1976)), HEY (Buick, et al., Cancer Res. 45, 3668 (1985)), U251 (Yoshida, et al., Cancer 50, 410 (1982)), A549 (Giard, et al., J. Natl. Cancer Inst. 51, 1417 (1973)) and SK-N-SH (Helson, et al., Cancer Res. 35, 2594 (1975)) cell lines have been described and were cultured in RPMI 1640 supplemented with 10% fetal calf serum (FCS). For measurement of sodium stibogluconate effects on cell growth in vitro, cells were cultured in the absence (−) or presence (+) of various amounts of sodium stibogluconate for 6 days with viable cells quantified by MTT assays (Mosmann, J. Immunol. Methods 65, 55 (1983)). Percentages of growth inhibition by sodium stibogluconate were calculated (.+−.x %).

The test system of the next data set is U266 cells. Nature of the data set: U266 multiple myeloma cell growth, MTT assay. It counts as cell-based, human. As to conditions: day 6. As for the experimental part: as §1
In the next data set the target is T1, intracellular Flag-PRL-1 (Homo sapiens, UniProt Q93096).
T1 construct: expressed in transfected cells
T1 sequence (Q93096 whole entry): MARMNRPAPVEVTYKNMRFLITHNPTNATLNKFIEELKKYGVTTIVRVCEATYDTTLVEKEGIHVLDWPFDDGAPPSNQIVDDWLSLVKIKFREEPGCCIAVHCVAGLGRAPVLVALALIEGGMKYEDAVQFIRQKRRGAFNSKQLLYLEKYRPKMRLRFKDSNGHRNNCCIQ
Description: Immunocomplex PTPase assay, Flag-PRL-1 NIH3T3 transfectants. As to conditions: cells treated 5 min. The class given is cell-based. As for the experimental part: Immunocomplex PTPase assays were performed to assess the effects of sodium stibogluconate on intracellular PTPases. Cells were untreated or treated with sodium stibogluconate for 5 minutes, washed with fresh medium and then lysed in cold lysis buffer (50 mM Tris, pH 7.4; 150 mM NaCl; 1% NP40; 2 mM PMSF; 20 μg/ml of Aprotinin). The lysates were incubated with an anti-Flag antibody in immunoprecipitation assays. The immunocomplexes were collected with protein G sepharose beads (Pharmacia) and washed in cold lysis buffer for 4 times. […] C. for 18 hrs. 100 µL of malachite green solution (UBI) was added to each reaction prior to measurement of OD660 to quantify the amounts of free phosphate cleaved by the PTPases from the peptide substrate (Pathak et al., J. Imumol. 167, 3391 (2001)). The remaining 10% contents of individual samples were analyzed by SDS-PAGE/Western blotting to quantify the relative amounts of the phosphatase proteins. […]
The effects of sodium stibogluconate on intracellular PTPases were assessed using NIH3T3 or WM9 transfectants. […]

The test system of the next data set is NB4 cells. Description: NB4 cell proliferation, MTT assay. The conditions noted are these: 12.5-400 μg/ml. It counts as cell-based, human. The protocol: The NB4 cell line (Lanotte et al., Blood 77, 1080 (1991)) was a gift from Dr. Dan Lindner of the Cleveland Clinic Foundation. […] and U937 cell lines were purchased from American Type Culture Collection (Rockville, Md.). These human […] cell lines were maintained in RPMI 1640 medium supplemented with 10% fetal calf serum (FCS). For cell proliferation assays, cells were cultured at 37° C. in 10% FCS medium containing various amounts of sodium stibogluconate for 6 days. The cell numbers in the cultures were determined by an MTT assay as described previously in Mosmann, J. Immunol. Methods 65, 55 (1983).

The next data set relates to WM35 cells. Description: WM35 melanoma cell growth. It counts as cell-based, human. As for the experimental part: as §1

Description for Renca tumors: Balb/c and athymic nude Balb/c mice (10 weeks old, female, Taconic Farms, Germantown, N.Y.) were inoculated (s.c.) at the flanks with Renca cells (10^6 cells/site). […] Student's t test was used for assessing the significance of tumor volume differences among differential treatment groups. Mouse viability (daily) and body weights (weekly) were also recorded during the study period. At the end of the study, Renca tumors and major internal organs (heart, kidney, liver, lung and spleen) were harvested for histology and immunohistochemistry analysis.

Take `O.O.O.O.O.O.O.O.O.O=C([O-])[C@@H]1[O][Sb]2([O-])([O][Sb]34([OH])[O][C@H]([C@H](O)CO)[C@H]([O]3)[C@H](C(=O)[O-])[O]4)[O][C@H]([C@H](O)CO)[C@@H]1[O]2.[Na+].[Na+].[Na+]` [sodium stibogluconate]: the tolerability of treatment entry in the data set with Renca tumors was “tolerated well”. Moreover, in the data set on C42 cells, the “response of C42 prostate cancer cell line” value was “highly resistant”. The “sensitivity of WiT49-N1 cells” value in the data set with WiT49-N1 cells is listed as “sensitive; also recorded: complete or near complete killing”. Also, in the data set on DR cells, the “growth inhibition of DR cells” value is listed as “complete or near complete killing”. For the same compound, the “DU145 cells in day 6 culture” value in the data set with DU145 cells is “killed all cells; also recorded: complete or near complete killing”. In the data set on U266 cells, the “growth inhibition of U266 cells by the drug by itself” value is “substantial growth inhibition activity”. The “PTPase activity of immunocomplexes from treated Flag-PRL-1 transfectants” value at intracellular Flag-PRL-1 is listed as “little PTPase activities”. For the same compound, the “proliferation of NB4 cells” value in the data set on NB4 cells is listed as “markedly inhibited”. The “effect on WM35 melanoma cell line” value with WM35 cells was “minimally affected”.
